Assay [1] deals with healthy volunteer peripheral blood neutrophils, monocytes and platelets. The assay is described as follows: Healthy volunteer whole blood incubated with RvDn-3 DPA then PAF, flow cytometry of activation markers. The assay is classed as cell-based, human. Conditions: vs PAF alone. The procedure:
Blood was collected from healthy volunteers and incubated with RvD2n-3 DPA, RvD5n-3 DPA (0.1 nM, 1 nM or 10 nM) or vehicle (PBS) for 15 min (37° C.) then with PAF (100 ng/ml; 30 min; 37° C.). Cell activation and leukocyte-platelet aggregates were assessed using flow cytometry. (A,B) Representative histograms depicting neutrophil (A) CD11b and (B) CD62P expression. (C,D) Cumulative neutrophil ([…]) CD11b and (D) CD62P expression. (E,F) Monocyte (E) CD11b and (F) CD62P expression. Results are mean of n=5 per time point and expressed as percentage change from PAF incubated cells. *p<0.05 compared to PAF using one-sample t test, followed by Sidak correction of p values.
Blood was collected from healthy volunteers and incubated with RvD2n-3 DPA, RvD5n-3 DPA (0.1 nM, 1 nM or 10 nM) or vehicle (PBS) for 15 min (37° C.) then with PAF (100 ng/ml; 30 min; 37° C.). Cell activation and leukocyte-platelet aggregates were assessed using flow cytometry. (A,B) Images depicting platelet monocyte (A) and (B) platelet-neutrophil aggregates. Results are representative of n=3 distinct experiments. (C,D) Cumulative neutrophil (C) CD11b and (D) CD62P expression. (E,F) Monocyte (E) CD11b and (F) CD62P expression. Results are mean of n=5 per condition and expressed as percentage change from PAF incubated cells. *p<0.05 compared to PAF using Wilcoxon Signed Rank Test. (G) Platelet rich plasma was incubated with vehicle (PBS) or RvD5n-3 DPA 0.1-10 nM (15 min; 37° C.) and PAF (100 nM; 30 min; 37° C.). Adhesion molecule expression evaluated using flow cytometry. Results are mean±s.e.m. n=5 healthy volunteers. * p, 0.05 compared to Vehicle group using Friedman's test followed by Dunn's multiple comparisons test.
(§1) After stimulation, samples were washed twice with PBS for 12 min at 800×g. Samples were stained for flow cytometry as described below.
(§2) Whole blood was incubated with lineage-specific markers for 45 min (4° C., in DPBS containing 0.02% BSA). The following anti-human antibodies were used: VioBlue-anti-CD41, PE-Cy5-anti-CD62P, Brilliant Violet 711-anti-CD11b, APC-Cy7-anti-CD16, Alexa Fluor 647-anti-CD14. After staining, red blood cells were lysed using Whole Blood Lysing Reagent Kit, according to the manufacturer's instructions. Data was collected using a flow cytometer and analysis was conducted using appropriate software.
For orientation: Flow cytometry measures light scatter and fluorescence of single cells or particles in a stream.

Assay [2] relates to peripheral blood leukocytes and platelets from CVD patients. The assay is described as follows: CVD patient whole blood incubated with RvD2n-3 DPA or RvD5n-3 DPA for 45 min, flow cytometry. The assay is classed as cell-based, human. Conditions: 45 min, no PAF. The procedure: FIG. 8: RvD2n-3 DPA and RvD5n-3 DPA reduce leukocyte activation in peripheral blood from CVD patients. Peripheral blood from patients diagnosed with cardiovascular disease (CVD) was collected at 9:00 h. […] Expression of CD62P on (A) neutrophils (B) monocytes and CD11b on (C) neutrophils and (D) monocytes was investigated using flow cytometry and fluorescently labelled antibodies.
as §2
In select experiments platelet adhesion molecule expression was assessed. Here platelets were incubated with fluorescently labelled mouse anti-human VioBlue-anti-CD41, PE-Cy5-anti-CD62P, PerCP/Cy5.5-anti-CD63 and FITC-ant-CD42b for 30 min at 4° C. Cells were then washed and fluorescence, staining evaluated using LSRFortessa cell analyser (BD Biosciences) and analysed using FlowJo software (Tree Star Inc., V10).

Assay [3] has the same test system. The assay is described as follows: CVD patient whole blood incubated with RvD2n-3 DPA or RvD5n-3 DPA then PAF, flow cytometry. The assay is classed as cell-based, human. Conditions: 15 min then PAF 30 min. The procedure:
Whole blood was incubated with RvD2n-3 DPA or RvD5n-3 DPA (0.1 nM, 1 nM or 10 nM) or vehicle (PBS containing 0.01% EtOH) for 15 min then with PAF (100 ng/ml) for 30 min (37° C.). Expression of CD62P on (A) neutrophils (B) monocytes and CD11b on (C) neutrophils and (D) monocytes was investigated using flow cytometry and fluorescently labelled antibodies. Results are mean±s.em. and expressed as percentage of PAF incubated cells. n=9 patients per interval. * p<0.05 vs Veh group using one-sample t test, followed by Sidak correction of p values.
Whole blood was incubated with RvD2n-3 DPA or RvD5n-3 DPA (0.1 nM, 1 nM or 10 nM) or vehicle (PBS containing 0.01% EtOH) for 15 min then with PAF (100 ng/ml) for 30 min (37° C.). Expression of CD62P on (A) neutrophils (B) monocytes and CD11b on (C) neutrophils and (D) monocytes was investigated using flow cytometry and fluorescently labeled antibodies. Results are mean±s.em. and expressed as percentage of PAF incubated cells. n=9 patients per group. * p<0.05 vs PAF group using Wilcoxon Signed Rank Test.
as §1, §2

For assay [4] the test system is unchanged. The description is as above. The assay is classed as cell-based, human.
Assay [5] has as its system peripheral blood from CVD patients. Conditions: ADA 1U, 37° C., 20 min, then perfused 0.3 Pa.
Description: (B) Peripheral blood from CVD patients was incubated with ADA (1U; 37° C.; 20 min) then perfused (0.3 Pa, 20 min, 37° C.). Plasma was collected and RvDn-3 DPA concentrations determined using LC/MS-MS based lipid mediator profiling. Results are mean±s.e.m. n=6 donors. *p<0.05, using paired Mann-Whitney test.
Using an automated syringe pump (Harvard Apparatus) connected to small-diameter tubing (1.6 mm inner diameter) and chamber slides (15μ-Slide VI^0.4, Ibidi), whole blood was perfused at a sheer rate of 0.1 dyne/cm^2 (low sheer rate) and at 0.3 dyne/cm^2 (high sheer rate) for 15 min. In selected experiment, blood was incubated with 10 nM Ach or 1 u of ADA for 20 min prior perfusing.
The mark [6] stands for this setting: 0.1, 1, 10 nM, 15 min then PAF 30 min.
[7] abbreviates: CVD patient whole blood, 0.1, 1, 10 nM.

For the compound `CC/C=C\CC(O)C(O)/C=C/C=C/C=C\C=C\C(O)CCCCCC(=O)O` (stereo not shown) [RvD2n-3 DPA, 7,16,17-trihydroxy-8,10,12,14E,19Z-docosapentaenoic acid], in assay [1] (setting [6]), the “monocyte expression of CD11b” value is “dose dependent decreases”, the “monocyte expression of platelet marker CD62P” value is given as “dose dependent decreases”, the “neutrophil CD11b expression” value is listed as “dose dependent decreases” and the “neutrophil-platelet aggregates measured as neutrophil CD62P expression” value is reported as “dose dependent decreases”. For the same compound, in assay [1] (at 10 nM, n=5 donors), the “decrease in monocyte CD41 expression” value is listed as approximately 29% and the “decrease in neutrophil CD41 expression” value is approximately 20%. Also, in assay [2] (setting [7]), the “monocyte CD11b expression” value is on record as “without significantly regulating”, the “neutrophil CD11b expression” value was “without significantly regulating”, the platelet-monocyte aggregates result was “dose-dependently decreased” and the platelet-neutrophil aggregates entry is “dose-dependently decreased”. Moreover, in assay [2] (CVD patient whole blood), the “platelet CD62P expression” value was “downregulated” and the “platelet CD63 expression” value was “downregulated”. Also, in assay [3], the “expression of CD11b on monocytes” value is listed as “only in part shared”; the “expression of CD11b on neutrophils” value is “only in part shared”; the “platelet-monocyte aggregates measured as CD62P and CD41 expression” value is on record as “decreases”; the “platelet-neutrophil aggregates measured as CD62P and CD41 expression” value was “decreases”. Further, in assay [4], the “expression of CD62P on peripheral blood platelets” value was “dose-dependently regulated” and the “expression of CD63 on peripheral blood platelets” value is reported as “dose-dependently regulated”.
Regarding adenosine deaminase [ADA], the “concentrations of RvDn-3 DPA in CVD patient blood” value in assay [5] is reported as “increase”.

Values taken from patent US12616672B2, “Methods for assessing risk of cardiovascular disease and methods and compounds for use in treating or preventing cardiovascular disease” (Queen Mary University of London, priority 2017, dated 2026).
